# Results: ChEMBL document CHEMBL1145476, “Inhibitory activities of three classes of acyclic nucleoside phosphonates against murine polyomavirus and primate simian virus 40 strains” (Antimicrob Agents Chemother, 2007)
# System: not listed separately
# Assay: Cytotoxicity against mouse UC1B cells
# Type: cell-based
# Conditions: not given
row,SMILES,CC50 [µM]
1,Nc1ncnc2c1ncn2C[C@H]1COP(=O)(O)CO1,190
2,Nc1ncn(C[C@@H](CO)OCP(=O)(O)O)c(=O)n1,294
3,Nc1ncn(C[C@H]2COP(=O)(O)CO2)c(=O)n1,139
4,CCCCCCCCCCCCCCCCOCCOP1(=O)CO[C@@H](Cn2cnc(N)nc2=O)CO1 (some centres undefined),18.8
5,Nc1nc(N)c2ncn(C[C@@H](CO)OCP(=O)(O)O)c2n1,21.4
6,Nc1nccc2c1ncn2C[C@@H](CO)OCP(=O)(O)O,49

# System: not listed separately
# Assay: Selectivity index, ratio of CC50 for mouse UC1B cells to EC50 of Murine polyomavirus 2PTA2
# Type: functional
# Conditions: not given
row,SMILES,Ratio CC50/EC50
1,Nc1ncnc2c1ncn2C[C@H]1COP(=O)(O)CO1,4
2,Nc1ncn(C[C@@H](CO)OCP(=O)(O)O)c(=O)n1,21.1
3,Nc1ncn(C[C@H]2COP(=O)(O)CO2)c(=O)n1,6.8
4,CCCCCCCCCCCCCCCCOCCOP1(=O)CO[C@@H](Cn2cnc(N)nc2=O)CO1 (some centres undefined),33.6
5,Nc1nc(N)c2ncn(C[C@@H](CO)OCP(=O)(O)O)c2n1,3.4
6,Nc1nccc2c1ncn2C[C@@H](CO)OCP(=O)(O)O,4.2

# System: Simian virus 40
# Assay: Antiviral activity against Simian virus 40 PML1 EK in african green monkey BSC1 cells assessed as reduction of virus-induced cytopathogenicity
# Type: functional, organism-based
# Conditions: Betapolyomavirus macacae, BSC-1
row,SMILES,EC50 [µM]
1,Nc1ncnc2c1ncn2C[C@H]1COP(=O)(O)CO1,49.8
2,Nc1ncn(C[C@@H](CO)OCP(=O)(O)O)c(=O)n1,14.6
3,Nc1ncn(C[C@H]2COP(=O)(O)CO2)c(=O)n1,19.8
4,CCCCCCCCCCCCCCCCOCCOP1(=O)CO[C@@H](Cn2cnc(N)nc2=O)CO1 (some centres undefined),0.23
5,Nc1nc(N)c2ncn(C[C@@H](CO)OCP(=O)(O)O)c2n1,33.6
6,Nc1nccc2c1ncn2C[C@@H](CO)OCP(=O)(O)O,6

# System: Murine polyomavirus
# Assay: Antiviral activity against Murine polyomavirus LID1 in UC1B cells assessed as reduction of virus yield
# Type: functional
# Conditions: Alphapolyomavirus muris
row,SMILES,EC99 [µM]
1,CCCCCCCCCCCCCCCCOCCOP1(=O)CO[C@@H](Cn2cnc(N)nc2=O)CO1 (some centres undefined),0.81

# System: Murine polyomavirus
# Assay: Antiviral activity against Murine polyomavirus PTA in UC1B cells assessed as reduction of virus yield
# Type: functional
# Conditions: Alphapolyomavirus muris
row,SMILES,EC99 [µM]
1,CCCCCCCCCCCCCCCCOCCOP1(=O)CO[C@@H](Cn2cnc(N)nc2=O)CO1 (some centres undefined),0.43

# System: not listed separately
# Assay: Selectivity index, ratio of CC50 for african green monkey BSC1 cells ot EC50 for Simian virus 40 PML1 EK
# Type: functional, BSC-1
# Conditions: not given
row,SMILES,Ratio CC50/EC50
1,Nc1ncnc2c1ncn2C[C@H]1COP(=O)(O)CO1,7.5
2,Nc1ncn(C[C@@H](CO)OCP(=O)(O)O)c(=O)n1,29.9
3,Nc1ncn(C[C@H]2COP(=O)(O)CO2)c(=O)n1,16.3
4,CCCCCCCCCCCCCCCCOCCOP1(=O)CO[C@@H](Cn2cnc(N)nc2=O)CO1 (some centres undefined),58.3
5,Nc1nc(N)c2ncn(C[C@@H](CO)OCP(=O)(O)O)c2n1,6.5
6,Nc1nccc2c1ncn2C[C@@H](CO)OCP(=O)(O)O,7.3

# System: not listed separately
# Assay: Selectivity index, ratio of CC50 for african green monkey BSC1 cells ot EC50 for Simian virus 40 PML2 DAR
# Type: functional, BSC-1
# Conditions: not given
row,SMILES,Ratio CC50/EC50
1,Nc1ncnc2c1ncn2C[C@H]1COP(=O)(O)CO1,9.7
2,Nc1ncn(C[C@@H](CO)OCP(=O)(O)O)c(=O)n1,27.4
3,Nc1ncn(C[C@H]2COP(=O)(O)CO2)c(=O)n1,16.9
4,CCCCCCCCCCCCCCCCOCCOP1(=O)CO[C@@H](Cn2cnc(N)nc2=O)CO1 (some centres undefined),39.4
5,Nc1nc(N)c2ncn(C[C@@H](CO)OCP(=O)(O)O)c2n1,4.6
6,Nc1nccc2c1ncn2C[C@@H](CO)OCP(=O)(O)O,6

# System: not listed separately
# Assay: Selectivity index, ratio of CC50 for african green monkey BSC1 cells ot EC50 for Simian virus 40 A2895
# Type: functional, BSC-1
# Conditions: not given
row,SMILES,Ratio CC50/EC50
1,Nc1ncnc2c1ncn2C[C@H]1COP(=O)(O)CO1,11.4
2,Nc1ncn(C[C@@H](CO)OCP(=O)(O)O)c(=O)n1,27.1
3,Nc1ncn(C[C@H]2COP(=O)(O)CO2)c(=O)n1,16.3
4,CCCCCCCCCCCCCCCCOCCOP1(=O)CO[C@@H](Cn2cnc(N)nc2=O)CO1 (some centres undefined),44.7
5,Nc1nc(N)c2ncn(C[C@@H](CO)OCP(=O)(O)O)c2n1,4.4
6,Nc1nccc2c1ncn2C[C@@H](CO)OCP(=O)(O)O,3.1

# System: Murine polyomavirus
# Assay: Antiviral activity against Murine polyomavirus PTA in mouse UC1B cells assessed as reduction of virus-induced cytopathogenicity
# Type: functional, cell-based
# Conditions: Alphapolyomavirus muris
row,SMILES,EC50 [µM]
1,Nc1ncnc2c1ncn2C[C@H]1COP(=O)(O)CO1,65.3
2,Nc1ncn(C[C@@H](CO)OCP(=O)(O)O)c(=O)n1,13.9
3,Nc1ncn(C[C@H]2COP(=O)(O)CO2)c(=O)n1,32
4,CCCCCCCCCCCCCCCCOCCOP1(=O)CO[C@@H](Cn2cnc(N)nc2=O)CO1 (some centres undefined),0.53
5,Nc1nc(N)c2ncn(C[C@@H](CO)OCP(=O)(O)O)c2n1,8.2
6,Nc1nccc2c1ncn2C[C@@H](CO)OCP(=O)(O)O,14.9

# System: Simian virus 40
# Assay: Antiviral activity against Simian virus 40 A2895 in african green monkey BSC1 cells assessed as reduction of virus-induced cytopathogenicity
# Type: functional, organism-based
# Conditions: Betapolyomavirus macacae, A2895, BSC-1
row,SMILES,EC50 [µM]
1,Nc1ncnc2c1ncn2C[C@H]1COP(=O)(O)CO1,32.6
2,Nc1ncn(C[C@@H](CO)OCP(=O)(O)O)c(=O)n1,16.1
3,Nc1ncn(C[C@H]2COP(=O)(O)CO2)c(=O)n1,19.8
4,CCCCCCCCCCCCCCCCOCCOP1(=O)CO[C@@H](Cn2cnc(N)nc2=O)CO1 (some centres undefined),0.3
5,Nc1nc(N)c2ncn(C[C@@H](CO)OCP(=O)(O)O)c2n1,49.3
6,Nc1nccc2c1ncn2C[C@@H](CO)OCP(=O)(O)O,13.9

# System: not listed separately
# Assay: Selectivity index, ratio of CC50 for mouse UC1B cells to EC50 of Murine polyomavirus LID1
# Type: functional
# Conditions: not given
row,SMILES,Ratio CC50/EC50
1,Nc1ncnc2c1ncn2C[C@H]1COP(=O)(O)CO1,3.2
2,Nc1ncn(C[C@@H](CO)OCP(=O)(O)O)c(=O)n1,18.2
3,Nc1ncn(C[C@H]2COP(=O)(O)CO2)c(=O)n1,3.7
4,CCCCCCCCCCCCCCCCOCCOP1(=O)CO[C@@H](Cn2cnc(N)nc2=O)CO1 (some centres undefined),21.4
5,Nc1nc(N)c2ncn(C[C@@H](CO)OCP(=O)(O)O)c2n1,2.4
6,Nc1nccc2c1ncn2C[C@@H](CO)OCP(=O)(O)O,3.5

# System: Murine polyomavirus
# Assay: Antiviral activity against Murine polyomavirus LID1 ATCC VR-252 in mouse UC1B cells assessed as reduction of virus-induced cytopathogenicity
# Type: functional, cell-based
# Conditions: Alphapolyomavirus muris
row,SMILES,EC50 [µM]
1,Nc1ncnc2c1ncn2C[C@H]1COP(=O)(O)CO1,58.6
2,Nc1ncn(C[C@@H](CO)OCP(=O)(O)O)c(=O)n1,16.1
3,Nc1ncn(C[C@H]2COP(=O)(O)CO2)c(=O)n1,38.1
4,CCCCCCCCCCCCCCCCOCCOP1(=O)CO[C@@H](Cn2cnc(N)nc2=O)CO1 (some centres undefined),0.88
5,Nc1nc(N)c2ncn(C[C@@H](CO)OCP(=O)(O)O)c2n1,9.1
6,Nc1nccc2c1ncn2C[C@@H](CO)OCP(=O)(O)O,13.9

# System: Simian virus 40
# Assay: Antiviral activity against Simian virus 40 PML2 DAR in african green monkey BSC1 cells assessed as reduction of virus-induced cytopathogenicity
# Type: functional, organism-based
# Conditions: Betapolyomavirus macacae, BSC-1
row,SMILES,EC50 [µM]
1,Nc1ncnc2c1ncn2C[C@H]1COP(=O)(O)CO1,38.3
2,Nc1ncn(C[C@@H](CO)OCP(=O)(O)O)c(=O)n1,16.1
3,Nc1ncn(C[C@H]2COP(=O)(O)CO2)c(=O)n1,19.1
4,CCCCCCCCCCCCCCCCOCCOP1(=O)CO[C@@H](Cn2cnc(N)nc2=O)CO1 (some centres undefined),0.34
5,Nc1nc(N)c2ncn(C[C@@H](CO)OCP(=O)(O)O)c2n1,47.1
6,Nc1nccc2c1ncn2C[C@@H](CO)OCP(=O)(O)O,7.3

# System: Simian virus 40
# Assay: Antiviral activity against Simian virus 40 A2895 in african green monkey BSC1 cells assessed as reduction of virus yield
# Type: functional
# Conditions: Betapolyomavirus macacae, A2895, BSC-1
row,SMILES,EC99 [µM]
1,CCCCCCCCCCCCCCCCOCCOP1(=O)CO[C@@H](Cn2cnc(N)nc2=O)CO1 (some centres undefined),0.26

# System: not listed separately
# Assay: Selectivity index, ratio of CC50 for mouse UC1B cells to EC50 of Murine polyomavirus PTA
# Type: functional
# Conditions: not given
row,SMILES,Ratio CC50/EC50
1,Nc1ncnc2c1ncn2C[C@H]1COP(=O)(O)CO1,2.9
2,Nc1ncn(C[C@@H](CO)OCP(=O)(O)O)c(=O)n1,21.1
3,Nc1ncn(C[C@H]2COP(=O)(O)CO2)c(=O)n1,4.3
4,CCCCCCCCCCCCCCCCOCCOP1(=O)CO[C@@H](Cn2cnc(N)nc2=O)CO1 (some centres undefined),35.5
5,Nc1nc(N)c2ncn(C[C@@H](CO)OCP(=O)(O)O)c2n1,2.6
6,Nc1nccc2c1ncn2C[C@@H](CO)OCP(=O)(O)O,3.3

# System: not listed separately
# Assay: Cytotoxicity against african green monkey BSC1 cells
# Type: cell-based, BSC-1
# Conditions: chlorocebus aethiops
row,SMILES,CC50 [µM]
1,Nc1ncnc2c1ncn2C[C@H]1COP(=O)(O)CO1,371
2,Nc1ncn(C[C@@H](CO)OCP(=O)(O)O)c(=O)n1,436
3,Nc1ncn(C[C@H]2COP(=O)(O)CO2)c(=O)n1,323
4,CCCCCCCCCCCCCCCCOCCOP1(=O)CO[C@@H](Cn2cnc(N)nc2=O)CO1 (some centres undefined),13.4
5,Nc1nc(N)c2ncn(C[C@@H](CO)OCP(=O)(O)O)c2n1,217
6,Nc1nccc2c1ncn2C[C@@H](CO)OCP(=O)(O)O,43.7

# System: not listed separately
# Assay: Selectivity index, ratio of CC50 for mouse UC1B cells to EC50 of Murine polyomavirus MN/RDE Toronto
# Type: functional
# Conditions: not given
row,SMILES,Ratio CC50/EC50
1,Nc1ncnc2c1ncn2C[C@H]1COP(=O)(O)CO1,4.9
2,Nc1ncn(C[C@@H](CO)OCP(=O)(O)O)c(=O)n1,30.6
3,Nc1ncn(C[C@H]2COP(=O)(O)CO2)c(=O)n1,8.1
4,CCCCCCCCCCCCCCCCOCCOP1(=O)CO[C@@H](Cn2cnc(N)nc2=O)CO1 (some centres undefined),34.2
5,Nc1nc(N)c2ncn(C[C@@H](CO)OCP(=O)(O)O)c2n1,3
6,Nc1nccc2c1ncn2C[C@@H](CO)OCP(=O)(O)O,4.9

# System: Murine polyomavirus
# Assay: Antiviral activity against Murine polyomavirus 2PTA2 in mouse UC1B cells assessed as reduction of virus-induced cytopathogenicity
# Type: functional, cell-based
# Conditions: Alphapolyomavirus muris, 2PTA2, UC1B
row,SMILES,EC50 [µM]
1,Nc1ncnc2c1ncn2C[C@H]1COP(=O)(O)CO1,47.4
2,Nc1ncn(C[C@@H](CO)OCP(=O)(O)O)c(=O)n1,13.9
3,Nc1ncn(C[C@H]2COP(=O)(O)CO2)c(=O)n1,20.6
4,CCCCCCCCCCCCCCCCOCCOP1(=O)CO[C@@H](Cn2cnc(N)nc2=O)CO1 (some centres undefined),0.56
5,Nc1nc(N)c2ncn(C[C@@H](CO)OCP(=O)(O)O)c2n1,6.3
6,Nc1nccc2c1ncn2C[C@@H](CO)OCP(=O)(O)O,11.6

# System: Murine polyomavirus
# Assay: Antiviral activity against Murine polyomavirus MN/RDE Toronto in mouse UC1B cells assessed as reduction of virus-induced cytopathogenicity
# Type: functional, cell-based
# Conditions: Alphapolyomavirus muris
row,SMILES,EC50 [µM]
1,Nc1ncnc2c1ncn2C[C@H]1COP(=O)(O)CO1,39
2,Nc1ncn(C[C@@H](CO)OCP(=O)(O)O)c(=O)n1,9.6
3,Nc1ncn(C[C@H]2COP(=O)(O)CO2)c(=O)n1,17.1
4,CCCCCCCCCCCCCCCCOCCOP1(=O)CO[C@@H](Cn2cnc(N)nc2=O)CO1 (some centres undefined),0.55
5,Nc1nc(N)c2ncn(C[C@@H](CO)OCP(=O)(O)O)c2n1,7.2
6,Nc1nccc2c1ncn2C[C@@H](CO)OCP(=O)(O)O,9.9
